“Also recorded” adds a separate entry of the source. *1 amine or outer side, *2 acyl side, *3 side chain or, on linkers, in order; H or OH if unused. Where a SMILES comes first, the peptide text is derived from it. Bridges are numbered along the chain shown (N, C = ends). Roman numbers before positions name the chains, in order. [ ]: non-standard residue; d: D form. Actinocin(9to1) = Cc1c2oc3c(C)ccc(C(=O)[*:1])c3nc-2c(C(=O)[*:2])c(N)c1=O; NMeV = CN[C@H](C(=O)O)C(C)C; Sar = CNCC(=O)O
Assays:
Format in all cases: cell-based, rat
[1] = test system: astrocyte-enriched cortical cell cultures; test: PGE2 release (ELISA) from astrocyte-enriched cortical cell cultures exposed to PAF analogs, related lipids or AA; settings: for PGE2 release into the conditioned media: various concentrations; for concentration giving peak PGE2 release: higher and lower concentrations elicited less release
Method: (§1) All experimental protocols were approved by the Massachusetts Institute of Technology institutional review committee and meet the guidelines of the National Institutes of Health. Dissociated astrocytes were cultured from cortices of postnatal day 1-2 rat pups (as described by K. D. McCarthy, et al., Preparation of separate astroglial and oligodendroglial cell cultures from rat cerebral tissue, J. Cell Biol. 85 (1980) 890-902, with minor modifications R. K. K. Lee, et al., Metabolic glutamate receptors increase amyloid precursor protein processing in astrocytes: inhibition by cyclic AMP, J. Neurochem. 68 (1997) 1830-1835.) In brief, cells from dissociated cortices were plated onto poly-L-lysine coated 35- or 100 mm culture dishes. The initial culture media, minimal essential medium (MEM, Gibco-Life Technologies; Rockville, Md.) containing 15% horse serum (BioWhittaker; Walkersville, Md.), were aspirated 2-5 h after plating to remove unattached cells and debris, and replaced with MEM containing 5% fetal bovine serum (FBS, BioWhittaker; Walkersville, Md.). Half the medium was replaced with MEM/5% FBS twice weekly. Astrocytes were kept at 37° C. in a humidified 5% CO2/95% air incubator for 9-15 days, by which time the cultures were confluent and could be used for experiments.
(§2) Mc-PAF (Biomol; Plymouth Meeting, PA) was dissolved in methanol at a stock concentration of 10 mM. PAF-16, PAF-18, lyso-PAF, AA (Cayman Chemicals), lyso-PC and PC (Sigma) were dissolved in ethanol at stock concentrations of 10 mM. All stock solutions of lipids were stored at −80° C. and were used within 6 weeks of reconstitution. BN 52021 and CV 6209 (Biomol) were dissolved in ethanol. These PAF antagonists were stored at −20° C. in stock concentrations of 100 mM. BN 50730 (Biomeasure; Milford, Mass.) was dissolved in 45% hydroxy-B-cyclodextrin (HBC). All agents were diluted in warned serum-free medium prior to cell stimulation. Equal amounts of vehicle was added to control cells.
(§3) Cells used for all experiments were established in vitro 9-15 days prior to use in experiments and were over 95% confluent. Serum-containing media were changed every 3-4 days. Cells were serum-deprived 24 hours prior to experimental treatments. Where treatment with PAF antagonists is indicated, these compounds were added 30 minutes prior to the addition of other agents.
(§4) PGE2 levels were measured by ELISA according to manufacturer's instructions (Cayman Chemicals, Ann Arbor, Mich.). Since the amount of PGE2 in fresh medium was negligible, (J. Luo, et al., Transforming growth factor B1 regulates the expression of cyclooxygenase in cultured cortical astrocytes and neurons, J. Neurochem. 71 (1998) 526-534), direct assays of the PGE2 concentration in cell-conditioned medium was used as a measurement of PGE2 secretion by cultured cells. Results were derived from at least 3 separate experiments, assayed in duplicate or triplicate (n=6-8). The reliable detection limit of this assay (i.e. sensitivity) averaged 14+/−6 pg of PGE2.

[2] = test system: primary cortical astrocytes; test: Effect of COX inhibitors on mc-PAF-induced PGE2 release from primary astrocytes (Example 3)
Method: Mc-PAF (Cayman Chemical, Ann Arbor, Mich.) was dissolved in ethanol at a stock concentration of 10 mM. Indomethacin, piroxicam, NS-398 (Biomol; Plymouth Meeting, Mass.), and SC-560 (Cayman Chemical) were dissolved in 45% hydroxy-β-cyclodextrin (HBC; Sigma, St. Louis, Mo.). Cells were serum-deprived for 24 hrs prior to experimental treatments to induce quiescence. Where treatment with inhibitors is indicated, these compounds were added 30 min prior to the addition of mc-PAF.
Direct assay of the PGE2 concentration in cell-conditioned medium was used as an index of PGE2 secretion by primary astrocytes. PGE2 levels were measured by ELISA according to manufacturer's instructions (Cayman Chemicals, Ann Arbor, Mich.), as described.
Results were derived from at least 3 separate experiments, assayed in duplicate or triplicate (n=6−8). Data were expressed as means+/−SEMs. Statistical analyses were performed using ANOVAs for comparisons between groups, followed by Fischer's PLSD post hoc comparisons by means contrast. p values <0.05 were considered statistically significant.

[3] = test system: astrocyte-enriched cortical cell cultures; test: Effect of PAF antagonists on mc-PAF-, lyso-PAF- and AA-induced PGE2 release from astrocytes; settings: for mc-PAF-induced PGE2 release: antagonist added 30 min before mc-PAF (1 μM), 30 min, BN 50730 0.1-100 μM, BN 52021 and CV 6209 1-50 μM; for PGE2 release, antagonist administered alone: no mc-PAF
Method: as §1, §2, §3, §4

[4] = pre-treatment, actinomycin D 5 μg/ml, cyclohexamide 10 μg/ml, data not shown
[5] = 10, 1, 0.1, and 0.01 μM, 30 min
[6] = various inhibitor concentrations (indomethacin 1, 10, and 50 μM), 30 min prior to mc-PAF (0.1 uM) for 30 min

## CCCCCCCCCCCCCCCCOC[C@@H](O)COP(=O)([O-])OCC[N+](C)(C)C [lyso-PAF]
[1]; 30 min, 37° C.
  concentration at which PGE2 release was significantly increased: 10 µM
  PGE2 release into the conditioned media: concentration-dependent increases

## Cc1c2oc3c(C)ccc(C(=O)N[C@@H]4C(=O)N[C@H](C(C)C)C(=O)N5CCC[C@H]5C(=O)N(C)CC(=O)N(C)[C@@H](C(C)C)C(=O)O[C@@H]4C)c3nc-2c(C(=O)N[C@@H]2C(=O)N[C@H](C(C)C)C(=O)N3CCC[C@H]3C(=O)N(C)CC(=O)N(C)[C@@H](C(C)C)C(=O)O[C@@H]2C)c(N)c1=O [actinomycin D] (I: T[dV]P[Sar][NMeV] / II: T[dV]P[Sar][NMeV]; ester I:1-I:C, II:1-II:C; linker I:N-II:N via Actinocin(9to1))
[2]; [4]
  mc-PAF-induced PGE2 release: had no effect

## CCCCCCCCCCCCCCCCOC[C@H](COP(=O)([O-])OCC[N+](C)(C)C)OC(C)=O [PAF-16]
[1]; 30 min, 37° C.
  PGE2 release into the conditioned media: concentration-dependent increases
[1]; 30 min
  concentration giving peak PGE2 release: 0.1 µM

## lyso-phosphatidylcholine [lyso-PC]
[1]; [5]
  PGE2 release: had no effect

## COc1ccc(-n2nc(C(F)(F)F)cc2-c2ccc(Cl)cc2)cc1 [SC-560]
[2]; [6]
  mc-PAF-induced PGE2 release: did not significantly influence; also recorded: did not significantly do so; also recorded: minimal influence

## CCCCC/C=C\C/C=C\C/C=C\C/C=C\CCCC(=O)O [AA, arachidonic acid]
[1]; AA 0.01-10 μM, 30 minutes
  PGE2 release: increased PGE2 release
[1]; high AA concentration 10 μM with mc-PAF, 30 min
  PGE2 release on co-administration with mc-PAF: no synergism
[1]; low AA concentration 0.01 μM with mc-PAF (0.1, 1 or 10 μM), 30 min
  PGE2 release on co-administration with mc-PAF: additive increase

## phosphatidylcholine [PC]
[1]; [5]
  PGE2 release: had no effect

## CCCCCCCCCCCCCCCCCCOC[C@H](COP(=O)([O-])OCC[N+](C)(C)C)OC(C)=O [PAF-18]
[1]; 30 min, 37° C.
  PGE2 release into the conditioned media: concentration-dependent increases
[1]; 30 min
  concentration giving peak PGE2 release: 0.1 µM

## COc1ccc2c(c1)c(CC(=O)O)c(C)n2C(=O)c1ccc(Cl)cc1 [indomethacin]
[2]; indomethacin 1, 10, and 50 μM
  basal PGE2 release: without affecting basal PGE2 release
[2]; [6]
  mc-PAF-induced PGE2 release: attenuated; also recorded: completely blocked

## CCCCCCCCCCCCCCCCCCNC(=O)OCC(COC(=O)N(Cc1cccc[n+]1CC)C(C)=O)OC (stereo not drawn) [CV 6209]
[3]
  mc-PAF-induced PGE2 release: no significant effect; also recorded: do not attenuate
  PGE2 release, antagonist administered alone: PGE2 release was increased
[3]; listed as CV-6209
  mc-PAF-induced PGE2 release: did not significantly influence
  PGE2 release, antagonist administered alone: increased PGE2 release
[3]; antagonist added 30 min prior
  AA-induced PGE2 release: had no effect
  lyso-PAF-induced PGE2 release: had no effect

## CN1C(C(=O)Nc2ccccn2)=C(O)c2ccccc2S1(=O)=O [piroxicam]
[2]; piroxicam 50 μM, effect not statistically significant
  mc-PAF-induced PGE2 release: attenuated some of this PGE2 release
[2]; piroxicam 1 or 10 μM, 30 min prior to mc-PAF (0.1 uM)
  mc-PAF-induced PGE2 release: had no effect
[2]; [6]
  mc-PAF-induced PGE2 release: did not significantly do so; also recorded: minimal influence

## C[C@@H]1C[C@@H]([C@H](O)CC2CC(=O)NC(=O)C2)C(=O)[C@@H](C)C1 [cyclohexamide]
[2]; [4]
  mc-PAF-induced PGE2 release: had no effect

## CS(=O)(=O)Nc1ccc([N+](=O)[O-])cc1OC1CCCCC1 [NS-398]
[2]; NS-398 highest concentrations, 10 and 50 μM
  basal PGE2 release: prevented basal PGE2 release
[2]; [6]
  mc-PAF-induced PGE2 release: completely abolished; also recorded: completely blocked

— US20050032713A1, “Platelet-activating factor antagonists as analgesic, anti-inflammatory, uterine contraction inhibiting, and anti-tumor agents” (priority 2002, published 2005)
